Measurements reported in patent US20240174618A1, “SUBSTITUTED (2-HETEROARYLOXYPHENYL)SULFONATES, SALTS THEREOF AND THEIR USE AS HERBICIDAL AGENTS” (Bayer Aktiengesellschaft, priority 2021, published 2024).

How the values were obtained:
Format in all cases: in vivo
[1] = tested on: Triticum aestivum (TRZAS); experiment: F. Post-emergence effect on useful plants, TRZAS; conditions: useful plant
Procedure, shortened: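 Crop plants grown in sandy loam in the greenhouse were sprayed at the one-leaf stage, 2-3 weeks after sowing, with WP or EC formulations plus 0.5% additive at 600 l/ha water. Damage was scored visually after about 3 weeks against untreated controls (0% = like control, 100% = dead).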

[2] = tested on: Triticum aestivum (TRZAS); experiment: D. Pre-emergence effect on useful plants, TRZAS; conditions: useful plant
From the text: (§1) Seeds of monocotyledonous and dicotyledonous weed plants and crop plants were placed in plastic or organic planting pots and covered with soil. The compounds of the invention, formulated in the form of wettable powders (WP) or as emulsion concentrates (EC), were then applied to the surface of the covering soil as aqueous suspension or emulsion with addition of 0.5% additive at a water application rate equivalent to 600 l/ha (converted). After the treatment, the pots were placed in a greenhouse and kept under good growth conditions for the test plants. After about 3 weeks, the efficacy of the preparations was scored visually in comparison with untreated controls as percentages. For example, • 100% efficacy=plants have died, • 0% efficacy=like untreated control plants.
Tables D1a to D5b below show the effects of selected compounds of the general formula (I) according to table 1 on various useful plants at an application rate corresponding to 320 g/ha or less, which were obtained by the experimental procedure mentioned above.

[3] = tested on: Alopecurus myosuroides (ALOMY); experiment: C. Herbicidal pre-emergence efficacy, ALOMY; conditions: 320 g/ha, scored after about 3 weeks
From the text: as §1
(§2) Tables C1a to C14b below show the effects of selected compounds of the general formula (I) according to table 1 on various harmful plants at an application rate corresponding to 320 g/ha or less, which were obtained by the experimental procedure mentioned above.

[4] = tested on: Abutilon theophrasti (ABUTH); experiment: B. Herbicidal post-emergence efficacy, ABUTH; conditions: rated visually after about 3 weeks
Procedure, shortened: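 First, seeds were sown in sandy loam and grown 2 to 3 weeks under controlled greenhouse conditions. Next, foliage at the one-leaf stage received the formulated compound in water with 0.5% additive (600 L/ha, 1280 g/ha or less). Finally, damage was rated visually after about 3 weeks against untreated plants.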

Setaria viridis (SETVI) [5] = experiment: E. Herbicidal post-emergence efficacy, SETVI
Experimental: Seeds of monocotyledonous and dicotyledonous weeds and crop plants were placed in sandy loam in plastic or organic planting pots, covered with soil and cultivated in a greenhouse under controlled growth conditions. 2 to 3 weeks after sowing, the test plants were treated at the one-leaf stage. The compounds of the invention, formulated in the form of wettable powders (WP) or as emulsion concentrates (EC), were then sprayed onto the green parts of the plants as aqueous suspension or emulsion with addition of 0.5% additive at a water application rate of 600 l/ha (converted). After the test plants had been kept in the greenhouse under optimum growth conditions for about 3 weeks, the activity of the preparations was rated visually in comparison to untreated controls.
For example, • 100% efficacy=plants have died, • 0% action=like untreated control plants.
Tables E1a to E12b below show the effects of selected compounds of the general formula (I) according to table 1 on various harmful plants at an application rate corresponding to 320 g/ha or less, which were obtained by the experimental procedure mentioned above.

[6] = tested on: Matricaria inodora (MATIN); experiment: A. Herbicidal pre-emergence efficacy, MATIN
Procedure, shortened: (§3)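 Pre-emergence soil-surface spray in sandy loam pots, WP/EC in water plus 0.5% additive, 600 L/ha. Visual % damage rating after about 3 weeks in greenhouse vs. untreated; 0% = control-like, 100% = dead plants. Rates up to 1280 g/ha.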

Stellaria media (STEME) = experiment: A. Herbicidal pre-emergence efficacy, STEME
Procedure, shortened: as §3

Setaria viridis (SETVI) [7] = experiment: C. Herbicidal pre-emergence efficacy, SETVI; conditions: scored after about 3 weeks
Procedure, shortened: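 Pre-emergence test: formulated compounds sprayed as aqueous suspension or emulsion with 0.5% additive at 600 l/ha onto soil covering sown seeds, at rates corresponding to 320 g/ha or less. After about 3 weeks in greenhouse, efficacy scored visually as percent versus untreated controls (100% = plants dead).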

Lolium rigidum (LOLRI) = experiment: C. Herbicidal pre-emergence efficacy, LOLRI; conditions: 320 g/ha, scored after about 3 weeks
From the text: as §1, §2

[8] = 320 g/ha, scored visually after about 3 weeks vs untreated controls
[9] = pre-emergence, dosage 1280 g/ha

Row | SMILES | Post-emergence efficacy against TRZAS in % ([1]; application rate 80 g/ha) [%] | Pre-emergence efficacy against TRZAS in % ([2]; application rate 80 g/ha) [%] | Pre-emergence efficacy against ALOMY [3] [%] | Post-emergence efficacy against ABUTH in % ([4]; 320 g/ha) [%] | Post-emergence efficacy against ABUTH in % ([4]; 1280 g/ha) [%] | Post-emergence efficacy against SETVI in % (Setaria viridis (SETVI) [5]; application rate 320 g/ha) [%] | Pre-emergence efficacy against MATIN [6, 8] [%] | Pre-emergence efficacy against MATIN [6, 9] [%] | Pre-emergence efficacy against STEME (Stellaria media (STEME); dosage 320 g/ha) [%] | Pre-emergence efficacy against STEME (Stellaria media (STEME); dosage 1280 g/ha) [%] | Pre-emergence efficacy against SETVI (Setaria viridis (SETVI) [7]; 320 g/ha) [%] | Post-emergence efficacy against TRZAS in % ([1]; application rate 320 g/ha) [%] | Pre-emergence efficacy against TRZAS in % ([2]; application rate 320 g/ha) [%] | Pre-emergence efficacy against STEME (Stellaria media (STEME); dosage 80 g/ha) [%] | Pre-emergence efficacy against LOLRI (Lolium rigidum (LOLRI)) [%] | Post-emergence efficacy against ABUTH in % ([4]; 80 g/ha) [%] | Post-emergence efficacy against SETVI in % (Setaria viridis (SETVI) [5]; application rate 80 g/ha) [%] | Pre-emergence efficacy against SETVI (Setaria viridis (SETVI) [7]; 80 g/ha) [%]
1 | O=S(=O)(CCl)Oc1ccccc1Oc1ncc(Cl)cn1 [Example I-9] | 20 | 20 | 80 | 90 | 90 | 100 | 90 | 100 | 100 | 100 | 90 |  |  |  |  |  |  | 
2 | Cc1cccc(OS(=O)(=O)CCCCl)c1Oc1ncc(Cl)cn1 [Example I-12] | 0 | 0 |  |  |  | 90 | 90 | 100 | 100 | 100 |  | 0 |  |  |  |  |  | 
3 | O=S(=O)(CCCCl)Oc1cccc(F)c1Oc1ncc(Cl)cn1 [Example I-13] | 10 | 10 |  |  | 90 |  |  |  | 100 | 100 |  | 10 | 10 | 100 |  |  |  | 
4 | O=S(=O)(CCCCCl)Oc1ccccc1Oc1ncc(Cl)cn1 [Example I-15] |  |  | 90 | 100 | 100 | 100 |  |  | 100 | 100 | 100 |  |  | 100 | 80 | 100 | 80 | 80
5 | CCS(=O)(=O)Oc1ccccc1Oc1ncc(Cl)cn1 [Example I-16] |  |  |  | 90 | 100 |  | 100 | 100 | 100 | 100 |  |  |  |  |  |  |  | 
6 | CCCCCS(=O)(=O)Oc1ccccc1Oc1ncc(Cl)cn1 [Example I-24] | 0 | 0 |  | 90 | 90 | 100 |  |  | 100 | 100 | 80 | 0 | 0 |  |  |  |  | 
7 | CC(C)CCS(=O)(=O)Oc1ccccc1Oc1ncc(Cl)cn1 [Example I-25] | 0 | 0 | 80 | 90 | 100 | 100 |  | 100 | 90 | 100 | 100 | 0 | 0 |  |  |  |  | 80
8 | Cc1cccc(Oc2ncc(Cl)cn2)c1OS(=O)(=O)CCCC(F)(F)F [Example I-28, 2-[(5-Chloropyrimidin-2-yl)oxy]-6-methylphenyl 4,4,4-trifluorobutane-1-sulfonate] |  |  |  | 100 | 100 |  |  | 100 | 100 | 100 |  |  |  | 90 |  |  |  | 
9 | Cc1cccc(Oc2ncc(Cl)cn2)c1OS(=O)(=O)CCC(F)(F)F [Example I-29] |  |  |  | 100 | 100 |  |  | 90 | 100 | 100 |  |  |  | 90 |  | 90 |  | 
10 | O=S(=O)(CCC(F)(F)F)Oc1c(Br)cccc1Oc1ncc(Cl)cn1 [Example I-31] |  |  |  | 100 | 100 |  |  | 90 | 100 | 100 |  |  |  | 90 |  | 90 |  | 
11 | O=S(=O)(CCC(F)(F)F)Oc1c(Cl)cccc1Oc1ncc(Br)cn1 [Example I-32] | 0 | 0 | 100 | 100 | 100 | 100 |  | 90 | 90 | 90 | 100 | 20 | 10 |  |  | 100 | 80 | 90
12 | O=S(=O)(CCCC(F)(F)F)Oc1c(Cl)cccc1Oc1ncc(Br)cn1 [Example I-34] | 0 | 0 | 80 | 100 | 100 | 90 |  |  | 90 | 90 | 100 | 20 | 0 |  |  | 90 | 90 | 80
13 | C=CCS(=O)(=O)Oc1ccccc1Oc1ncc(Cl)cn1 [Example I-36] | 0 | 0 |  |  |  |  |  |  |  | 90 |  | 0 | 0 |  |  |  |  | 
14 | O=S(=O)(CCC(F)(F)F)Oc1c(Br)cccc1Oc1ncc(F)cn1 [Example I-43] | 0 | 0 |  | 90 | 100 |  |  | 90 | 100 | 100 | 100 | 0 |  |  |  |  |  | 100
15 | O=S(=O)(CCCC(F)(F)C(F)(F)F)Oc1c(F)cccc1Oc1ncc(Cl)cn1 [Example I-68] | 20 | 0 | 90 | 100 | 100 | 100 | 100 | 100 | 100 | 100 | 100 | 20 | 10 |  |  | 100 | 100 | 
16 | Cc1cccc(Oc2ncc(Cl)cn2)c1OS(=O)(=O)CC1CC(F)(F)C1 [Example I-74] | 0 | 0 |  | 100 | 100 | 90 |  |  | 90 | 100 | 100 |  |  |  |  | 100 |  | 100
